# Test results from patent US20080058318A1 (priority 2006, published 2008).
# Values joined by “and” are separate entries in the source; they are usually repeats but may differ in a detail not shown here. Identical values can stand only once. Counter-ions that a name gives are not always drawn.
# What was measured:
# [1] = tested on: subjects suffering from fibromyalgia syndrome; details: cited from earlier work; for Subjects with significant clinical improvement: after one month; for Difference between treatment group and placebo: at three months
# [2] = tested on: fibromyalgia patients; details: cited from earlier work
# [3] = tested on: patients who met the 1990 ACR criteria for fibromyalgia syndrome; experiment: Example 1 study: composite responder analysis for pain of fibromyalgia (pain reduction plus PGIC); format: in vivo, human; details: for Responders for the treatment of the pain of fibromyalgia, % = m/n: observed cases (OC), hydrochloride; for Responders for the treatment of the pain of fibromyalgia, m (number of responders): observed cases
# Experimental: (§1) This was a multi-center, randomized, double-blinded, placebo-controlled three-arm study, which enrolled 888 patients who met the 1990 ACR criteria for fibromyalgia syndrome as well as the more detailed admission criteria outlined in the protocol.
# (§2) All randomized medications (placebo and milnacipran) were administered in a split-dose (BID) fashion. The doses were administered in a dose escalation regimen as outlined below:
# The primary endpoint of this study was a composite responder analysis implementing analysis of three domains of interest, evaluated at […]. The domains measured were:
# 1) pain (measured by an electronic diary as a daily recall pain score, calculated to weekly average scores)
# 2) patient global (measured by the PGIC, 1-7 scale)
# For the primary analysis, the pain domain score was determined by a calculation that compared the average of treatment weeks 14 and 15 to the two baseline weeks, and treatment weeks 26 and 27 vs. baseline for the secondary analysis. The last observation was carried forward if neither the week 14 nor week 15 (or week 26/27) patient self-reported pain score is available to compare to the baseline value.
# A responder was defined as a subject who experienced a greater than 30% reduction in pain from baseline and improvement on the PGIC.
# See Table 1 for a summary of the results in the Intent-to-Treat Population and Table 2 for a summary of the Last Observation Carried Forward (LOCF), Baseline Observation Carried Forward (BOCF) and study completer (OC) populations. LOCF is an analysis in which observations are carried forward to the last time point for patients who dropped out. The LOCF analysis treats the carried-forward data as observed data at the last time point. BOCF is an analysis that requires that the patient remain active in the trial to be evaluated for response. If a patient withdraws from the trial for any reason they are classed as a non-responder irregardless of their pain and global scores at the time of withdrawal.
# [4] = tested on: fibromyalgia patients; details: cited from earlier work; remark: listed apart in the source
# [5] = tested on: patients who meet the 1990 ACR criteria for fibromyalgia syndrome; experiment: Example 2 study: MASQ total score, 3-month treatment period; format: in vivo, human; design: MASQ total score, Actual, Mean / MASQ total score, Change from baseline, Mean / MASQ total score, Actual, Median / MASQ total score, Change from baseline, Median: scale not given here; details: for MASQ total score change, Difference from Placebo / MASQ total score, Change from baseline, LS Mean (SE): 3-month (LOCF), ITT, ANCOVA model; for MASQ total score, Actual, Mean / MASQ total score, Actual, Median / MASQ total score, Change from baseline, Mean / MASQ total score, Change from baseline, Median: 3-month treatment period (LOCF), intent-to-treat
# Experimental: This was a multicenter, randomized, double-blind, placebo-controlled three-arm study designed which enrolled 1196 patients who meet the 1990 ACR criteria for fibromyalgia syndrome (history of widespread pain and pain in 11 of 18 tender point sites on digital palpation), as well as the more detailed admission criteria outlined in the protocol.
# All randomized medications (placebo and milnacipran) were administered twice a day (BID).
# (iii) Additional Efficacy Measurements: The Fibromyalgia Impact Questionnaire (FIQ) total score and physical function, Beck Depression Inventory (BDI), the MOS-Sleep Index Scale, the Arizona Sexual Experiences Scale (ASEX), Patient pain 24 hour and 7 day recall VAS, the SF-36 individual domains, Patient Global Disease Status, Patient Global Therapeutic Benefit, the Multiple Ability Self-report Questionnaire (MASQ, cognitive function), the Multidimensional Health Assessment Questionnaire (MDHAQ), Multidimensional Fatigue Inventory (MFI), and diary assessments including current pain (morning, random daily, and evening reports); overall pain past week (weekly report), overall fatigue in the last week (weekly report), and the extent that pain kept the patient from caring for themselves (weekly report).
# [6] = tested on: patients who met the 1990 ACR criteria for fibromyalgia syndrome; experiment: Example 1 study: MASQ total score (cognitive function), change from baseline; format: in vivo, human; design: MASQ Total Score - Change from Baseline: scale not given here
# Experimental: as §1, §2
# d. FMS Status Assessments: Patient pain 24 hour and 7 day recall VAS, the SF-36, Multiple Ability Self-report Questionnaire (MAS Q, cognitive function), the Multidimensional Health Assessment Questionnaire (MDHAQ) and the Multidimensional Fatigue Inventory (MFI). Diary assessments include current pain (morning, random daily, and evening reports); daily recall pain (morning report); medications taken (evening report); overall pain past week (weekly report), overall fatigue in the last week (weekly report), and the extent that pain kept the patient from caring for themselves (weekly report).
# The MASQ is a brief self-report questionnaire, which includes 5 cognitive domains: language ability, visuo-perceptual ability, verbal memory, visual memory, and attention/concentration (Seidenberg et al., J Clin & Exp Neuropsychology 1994; 16:93-104). The MASQ has been validated in both normal subjects and patient groups having cognitive difficulties in the assessment domains.
# [7] = tested on: patients with FMS; details: open-label, cited from earlier work
smiles,measurement,setting,value
CN(C)CCC=C1c2ccccc2C=Cc2ccccc21 [cyclobenzaprine],Subjects with significant clinical improvement,[1],12%
same,Difference between treatment group and placebo,[1],no difference
"CCN(CC)C(=O)C1(c2ccccc2)CC1CN (racemic) [milnacipran, Z-2-aminomethyl-1-phenyl-N,N-diethylcyclopropanecarboxamide hydrochloride]",Deaths or serious adverse events associated with treatment,[2]; Phase II study,no deaths or serious adverse events
same,Patients with adverse events from elevation in hepatic enzymes,[2]; milnacipran-treated patients,2%
same,"Responders for the treatment of the pain of fibromyalgia, % = m/n","[3]; 100 mg/day BID, treatment weeks 14-15 (3 month)",53.33% and 53.3%
same,"Responders for the treatment of the pain of fibromyalgia, % = m/n","[3]; 100 mg/day BID, treatment weeks 14-15 (3 month), listed as Milnacipran",53.33%
same,"Responders for the treatment of the pain of fibromyalgia, % = m/n","[3]; 100 mg/day BID, treatment weeks 26-27 (6 month)",49.59% and 49.6%
same,"Responders for the treatment of the pain of fibromyalgia, % = m/n","[3]; 100 mg/day BID, treatment weeks 26-27 (6 month), listed as Milnacipran",49.59%
same,"Long-term treatment of fibromyalgia and some of its symptoms, low dose compared with high dose","[3]; 100 mg/day vs 200 mg/day, continued administration",almost as effective as continued administration of high-dose milnacipran
same,"Responders for the treatment of the pain of fibromyalgia, m (number of responders)","[3]; 100 mg/day, treatment weeks 14-15, n = 135",72
same,"Responders for the treatment of the pain of fibromyalgia, m (number of responders)","[3]; 100 mg/day, treatment weeks 26-27, n = 121",60
same,"Individual component responder rate, PGIC (LOCF)","[3]; 100 mg, 3 month",54.0%
same,"Individual component responder rate, Pain (LOCF)","[3]; 100 mg, 3 month",35.7%
same,"Pain composite responder rate, Sensitivity Analysis I (BOCF)","[3]; 100 mg, 3 month",32.1%
same,"Pain composite responder rate, Sensitivity Analysis II","[3]; 100 mg, 3 month",32.%
same,"Pain composite responder rate, Sensitivity Analysis III","[3]; 100 mg, 3 month",32.1%
same,"Pain composite responder rate, Primary Analysis (LOCF)","[3]; 100 mg, 3 month, N = 224",33.5%
same,"Individual component responder rate, PGIC (LOCF)","[3]; 100 mg, 6 month",49.6%
same,"Individual component responder rate, Pain (LOCF)","[3]; 100 mg, 6 month",35.7%
same,"Pain composite responder rate, Sensitivity Analysis I (BOCF)","[3]; 100 mg, 6 month",26.8%
same,"Pain composite responder rate, Sensitivity Analysis II","[3]; 100 mg, 6 month",27.2%
same,"Pain composite responder rate, Sensitivity Analysis III","[3]; 100 mg, 6 month",29.5%
same,"Pain composite responder rate, Primary Analysis (LOCF)","[3]; 100 mg, 6 month, N = 224",30.8%
same,"Responders for the treatment of the pain of fibromyalgia, % = m/n","[3]; 200 mg/day BID, treatment weeks 14-15 (3 month)",55.0%
same,"Responders for the treatment of the pain of fibromyalgia, % = m/n","[3]; 200 mg/day BID, treatment weeks 14-15 (3 month), listed as Milnacipran",55.00%
same,"Responders for the treatment of the pain of fibromyalgia, % = m/n","[3]; 200 mg/day BID, treatment weeks 26-27 (6 month)",51.74% and 51.7%
same,"Responders for the treatment of the pain of fibromyalgia, % = m/n","[3]; 200 mg/day BID, treatment weeks 26-27 (6 month), listed as Milnacipran",51.74%
same,"Responders for the treatment of the pain of fibromyalgia, m (number of responders)","[3]; 200 mg/day, treatment weeks 14-15, n = 260",143
same,"Responders for the treatment of the pain of fibromyalgia, m (number of responders)","[3]; 200 mg/day, treatment weeks 26-27, n = 230",119
same,"Individual component responder rate, PGIC (LOCF)","[3]; 200 mg, 3 month",50.6%
same,"Individual component responder rate, Pain (LOCF)","[3]; 200 mg, 3 month",38.3%
same,"Pain composite responder rate, Sensitivity Analysis I (BOCF)","[3]; 200 mg, 3 month",32.4%
same,"Pain composite responder rate, Sensitivity Analysis II","[3]; 200 mg, 3 month",32.7%
same,"Pain composite responder rate, Sensitivity Analysis III","[3]; 200 mg, 3 month",32.4%
same,"Pain composite responder rate, Primary Analysis (LOCF)","[3]; 200 mg, 3 month, N = 441",34.9%
same,"Individual component responder rate, PGIC (LOCF)","[3]; 200 mg, 6 month",49.9%
same,"Individual component responder rate, Pain (LOCF)","[3]; 200 mg, 6 month",35.4%
same,"Pain composite responder rate, Sensitivity Analysis I (BOCF)","[3]; 200 mg, 6 month",27.0%
same,"Pain composite responder rate, Sensitivity Analysis II","[3]; 200 mg, 6 month",28.6%
same,"Pain composite responder rate, Sensitivity Analysis III","[3]; 200 mg, 6 month",29.9%
same,"Pain composite responder rate, Primary Analysis (LOCF)","[3]; 200 mg, 6 month, N = 441",32.2%
same,Acute (short-term) therapy for the symptom of pain in FMS,[4]; 100 mg BID,effective acute (short-term) therapy
same,"Effect on fatigue, mood, global wellness, and function, BID compared with QD dosing","[4]; BID vs QD, up to 200 mg/day",approximately equally effective
same,"Treating pain, twice-daily dosing compared with QD dosing","[4]; BID vs QD, up to 200 mg/day",more effective in treating pain than QD dosing
same,PGIC: completers who reported an improvement in their overall status,"[4]; both milnacipran treatment groups (BID and QD), up to 200 mg/day",over 70%
same,PGIC: completers who reported worsening,"[4]; milnacipran treatment groups, up to 200 mg/day",10%
same,"MASQ total score change, Difference from Placebo",[5]; 100 mg,−1.13
same,"MASQ total score, Change from baseline, LS Mean (SE)",[5]; 100 mg,−3.93 (0.786)
same,"MASQ total score, Actual, Mean",[5]; 100 mg,88.86
same,"MASQ total score, Actual, Median",[5]; 100 mg,89.0
same,"MASQ total score, Change from baseline, Mean",[5]; 100 mg,−3.34
same,"MASQ total score, Change from baseline, Median",[5]; 100 mg,−3.0
same,"MASQ total score change, Difference from Placebo",[5]; 200 mg,−1.12
same,"MASQ total score, Change from baseline, LS Mean (SE)",[5]; 200 mg,−4.51 (0.797)
same,"MASQ total score, Actual, Mean",[5]; 200 mg,89.63
same,"MASQ total score, Actual, Median",[5]; 200 mg,90.5
same,"MASQ total score, Change from baseline, Mean",[5]; 200 mg,−3.75
same,"MASQ total score, Change from baseline, Median",[5]; 200 mg,−3.0
same,"Treatment of cognitive dysfunction associated with FMS (change in MASQ total score), comparison with placebo",[6]; 100 mg/day vs placebo,superior to placebo
same,MASQ Total Score - Change from Baseline,"[6]; 100 mg, treatment week 3",−0.39
same,MASQ Total Score - Change from Baseline,"[6]; 100 mg, treatment week 7",−0.34
same,MASQ Total Score - Change from Baseline,"[6]; 100 mg, treatment week 11",−1.33
same,MASQ Total Score - Change from Baseline,"[6]; 100 mg, treatment week 15",−1.18
same,MASQ Total Score - Change from Baseline,"[6]; 100 mg, treatment week 19",−1.60
same,MASQ Total Score - Change from Baseline,"[6]; 100 mg, treatment week 23",−0.89
same,MASQ Total Score - Change from Baseline,"[6]; 100 mg, treatment week 27",−1.07
same,"Treatment of cognitive dysfunction associated with FMS (change in MASQ total score), 200 mg/day compared with 100 mg/day",[6]; 200 mg/day vs 100 mg/day,superior to milnacipran 100 mg/day
same,"Treatment of cognitive dysfunction associated with FMS (change in MASQ total score), comparison with placebo",[6]; 200 mg/day vs placebo,superior to placebo
same,MASQ Total Score - Change from Baseline,"[6]; 200 mg, treatment week 3",−1.60
same,MASQ Total Score - Change from Baseline,"[6]; 200 mg, treatment week 7",−1.77
same,MASQ Total Score - Change from Baseline,"[6]; 200 mg, treatment week 11",−1.73
same,MASQ Total Score - Change from Baseline,"[6]; 200 mg, treatment week 15",−1.76
same,MASQ Total Score - Change from Baseline,"[6]; 200 mg, treatment week 19",−1.63
same,MASQ Total Score - Change from Baseline,"[6]; 200 mg, treatment week 23",−1.52
same,MASQ Total Score - Change from Baseline,"[6]; 200 mg, treatment week 27",−1.89
CN(C)CCC=C1c2ccccc2CCc2ccccc21 [amitriptyline],Subjects with significant clinical improvement,[1],21%
same,Difference between treatment group and placebo,[1],no difference
COc1ccc(C(CN(C)C)C2(O)CCCCC2)cc1 (stereo not shown) [venlafaxine],Completing patients with insomnia requiring adjunctive medical therapy,[7]; 11 completing patients,3 of 11
same,Completing patients with a positive response (50% or greater improvement in two measurements of overall pain),"[7]; 15 patients, 11 completing",Six of 11
